Measured values as given in the supplement of paper PMC10307832.

Tests used:
Test in all cases: relative viability (nuclei count vs DMSO), 5 days (fraction); higher = more cells survive
EKVX = system: EKVX
Procedure, shortened: (§1)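 For relative viability, nuclei counts in treated wells were divided by those in vehicle wells. Lung cancer cell lines had been pin-tool dosed in 1536-well plates the day after seeding and cultured for 5 days, then fixed and stained in one step (final 0.05% Triton X-100, 1% formaldehyde, 1 ug/ml Hoechst) and imaged at 4×. Doses were one drug alone or a fixed anchor-drug dose plus five library-drug doses (not always all listed) in √10 steps, and values are duplicate-plate medians.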

HCC-366 = system: HCC-366
Procedure, shortened: as §1

NCI-H1650 = system: NCI-H1650
Procedure, shortened: as §1

NCI-H1975 = system: NCI-H1975
Procedure, shortened: as §1

LC-2-ad = system: LC-2-ad
Procedure, shortened: as §1

SK-LU-1 = system: SK-LU-1
Procedure, shortened: as §1

HARA = system: HARA
Procedure, shortened: as §1

COR-L 105 = system: COR-L 105
Procedure, shortened: as §1

NCI-H596 = system: NCI-H596
Procedure, shortened: as §1

RERF-LC-KJ = system: RERF-LC-KJ
Procedure, shortened: as §1

NCI-H3122 = system: NCI-H3122
Procedure, shortened: as §1

LU99A = system: LU99A
Procedure, shortened: as §1

COR-L23 = system: COR-L23
Procedure, shortened: as §1

HCC-827 = system: HCC-827
Procedure, shortened: as §1

201T = system: 201T
Procedure, shortened: as §1

HCC-15 = system: HCC-15
Procedure, shortened: as §1

NCI-H1755 = system: NCI-H1755
Procedure, shortened: as §1

NCI-H1734 = system: NCI-H1734
Procedure, shortened: as §1

BEN = system: BEN
Procedure, shortened: as §1

NCI-H1944 = system: NCI-H1944
Procedure, shortened: as §1

NCI-H1993 = system: NCI-H1993
Procedure, shortened: as §1

HCC-78 = system: HCC-78
Procedure, shortened: as §1

LXF-289 = system: LXF-289
Procedure, shortened: as §1

Compound: O=C(O)CCCCC(CCSCc1ccccc1)SCc1ccccc1 (centres undefined) [CPI-613] + Cc1nc(Nc2ncc(C(=O)Nc3c(C)cccc3Cl)s2)cc(N2CCN(CCO)CC2)n1 [Dasatinib] (partner 0.075 µM)
- relative viability (EKVX; first compound 5 µM): 0.561
- relative viability (EKVX; first compound 15.81 µM): 0.482
- relative viability (EKVX; first compound 50 µM): 0.565
- relative viability (EKVX; first compound 158.11 µM): 0.466
- relative viability (EKVX; first compound 500 µM): 0.517
- relative viability (HCC-366; first compound 5 µM): 0.604
- relative viability (HCC-366; first compound 15.81 µM): 0.606
- relative viability (HCC-366; first compound 50 µM): 0.798
- relative viability (HCC-366; first compound 158.11 µM): 0.309
- relative viability (HCC-366; first compound 500 µM): 0.0101
- relative viability (NCI-H1650; first compound 5 µM): 0.353
- relative viability (NCI-H1650; first compound 15.81 µM): 0.285
- relative viability (NCI-H1650; first compound 50 µM): 0.312
- relative viability (NCI-H1650; first compound 158.11 µM): 0.082
- relative viability (NCI-H1650; first compound 500 µM): 0.0164
- relative viability (NCI-H1975; first compound 5 µM): 0.377
- relative viability (NCI-H1975; first compound 15.81 µM): 0.331
- relative viability (NCI-H1975; first compound 50 µM): 0.347
- relative viability (NCI-H1975; first compound 158.11 µM): 0.176
- relative viability (NCI-H1975; first compound 500 µM): 0.111
- relative viability (LC-2-ad; first compound 5 µM): 0.488
- relative viability (LC-2-ad; first compound 15.81 µM): 0.51
- relative viability (LC-2-ad; first compound 50 µM): 0.573
- relative viability (LC-2-ad; first compound 158.11 µM): 0.259
- relative viability (LC-2-ad; first compound 500 µM): 0.0544
- relative viability (SK-LU-1; first compound 5 µM): 0.176
- relative viability (SK-LU-1; first compound 15.81 µM): 0.18
- relative viability (SK-LU-1; first compound 50 µM): 0.187
- relative viability (SK-LU-1; first compound 158.11 µM): 0.151
- relative viability (SK-LU-1; first compound 500 µM): 0.0997
- relative viability (HARA; first compound 15.81 µM): 0.23
- relative viability (HARA; first compound 50 µM): 0.309
- relative viability (HARA; first compound 158.11 µM): 0.149
- relative viability (HARA; first compound 500 µM): 0.0196
- relative viability (COR-L 105; first compound 5 µM): 0.386
- relative viability (COR-L 105; first compound 15.81 µM): 0.285
- relative viability (COR-L 105; first compound 50 µM): 0.307
- relative viability (COR-L 105; first compound 158.11 µM): 0.278
- relative viability (COR-L 105; first compound 500 µM): 0.131
- relative viability (NCI-H596; first compound 5 µM): 0.647
- relative viability (NCI-H596; first compound 15.81 µM): 0.616
- relative viability (NCI-H596; first compound 50 µM): 0.628
- relative viability (NCI-H596; first compound 158.11 µM): 0.465
- relative viability (NCI-H596; first compound 500 µM): 0.0504
- relative viability (RERF-LC-KJ; first compound 5 µM): 0.784
- relative viability (RERF-LC-KJ; first compound 15.81 µM): 0.754
- relative viability (RERF-LC-KJ; first compound 50 µM): 0.766
- relative viability (RERF-LC-KJ; first compound 158.11 µM): 0.198
- relative viability (RERF-LC-KJ; first compound 500 µM): 0.123
- relative viability (NCI-H3122; first compound 5 µM): 0.795
- relative viability (NCI-H3122; first compound 15.81 µM): 0.693
- relative viability (NCI-H3122; first compound 50 µM): 0.802
- relative viability (NCI-H3122; first compound 158.11 µM): 0.702
- relative viability (NCI-H3122; first compound 500 µM): 0.28
- relative viability (LU99A; first compound 5 µM): 0.551
- relative viability (LU99A; first compound 15.81 µM): 0.577
- relative viability (LU99A; first compound 50 µM): 0.424
- relative viability (LU99A; first compound 158.11 µM): 0.426
- relative viability (LU99A; first compound 500 µM): 0.0381
- relative viability (COR-L23; first compound 5 µM): 0.568
- relative viability (COR-L23; first compound 15.81 µM): 0.493
- relative viability (COR-L23; first compound 50 µM): 0.485
- relative viability (COR-L23; first compound 158.11 µM): 0.334
- relative viability (COR-L23; first compound 500 µM): 0.0383
- relative viability (HCC-827; first compound 5 µM): 0.262
- relative viability (HCC-827; first compound 15.81 µM): 0.295
- relative viability (HCC-827; first compound 50 µM): 0.405
- relative viability (HCC-827; first compound 158.11 µM): 0.315
- relative viability (HCC-827; first compound 500 µM): 0.353
- relative viability (201T; first compound 5 µM): 0.553
- relative viability (201T; first compound 15.81 µM): 0.527
- relative viability (201T; first compound 50 µM): 0.488
- relative viability (201T; first compound 158.11 µM): 0.352
- relative viability (201T; first compound 500 µM): 0.303
- relative viability (HCC-15; first compound 5 µM): 0.56
- relative viability (HCC-15; first compound 15.81 µM): 0.529
- relative viability (HCC-15; first compound 50 µM): 0.552
- relative viability (HCC-15; first compound 158.11 µM): 0.308
- relative viability (HCC-15; first compound 500 µM): 0.0395
- relative viability (NCI-H1755; first compound 5 µM): 0.406
- relative viability (NCI-H1755; first compound 15.81 µM): 0.41
- relative viability (NCI-H1755; first compound 50 µM): 0.446
- relative viability (NCI-H1755; first compound 158.11 µM): 0.464
- relative viability (NCI-H1755; first compound 500 µM): 0.225
- relative viability (NCI-H1734; first compound 5 µM): 0.411
- relative viability (NCI-H1734; first compound 15.81 µM): 0.47
- relative viability (NCI-H1734; first compound 50 µM): 0.413
- relative viability (NCI-H1734; first compound 158.11 µM): 0.301
- relative viability (NCI-H1734; first compound 500 µM): 0.105
- relative viability (BEN; first compound 5 µM): 0.341
- relative viability (BEN; first compound 15.81 µM): 0.293
- relative viability (BEN; first compound 50 µM): 0.293
- relative viability (BEN; first compound 158.11 µM): 0.267
- relative viability (BEN; first compound 500 µM): 0.279
- relative viability (NCI-H1944; first compound 5 µM): 0.212
- relative viability (NCI-H1944; first compound 15.81 µM): 0.219
- relative viability (NCI-H1944; first compound 50 µM): 0.188
- relative viability (NCI-H1944; first compound 158.11 µM): 0.19
- relative viability (NCI-H1944; first compound 500 µM): 0.0792
- relative viability (NCI-H1993; first compound 5 µM): 0.495
- relative viability (NCI-H1993; first compound 15.81 µM): 0.262
- relative viability (NCI-H1993; first compound 50 µM): 0.605
- relative viability (NCI-H1993; first compound 158.11 µM): 0.522
- relative viability (NCI-H1993; first compound 500 µM): 0.369
- relative viability (HCC-78; first compound 5 µM): 0.358
- relative viability (HCC-78; first compound 15.81 µM): 0.272
- relative viability (HCC-78; first compound 50 µM): 0.408
- relative viability (HCC-78; first compound 158.11 µM): 0.339
- relative viability (HCC-78; first compound 500 µM): 0.342
- relative viability (LXF-289; first compound 5 µM): 0.208
- relative viability (LXF-289; first compound 15.81 µM): 0.206
- relative viability (LXF-289; first compound 50 µM): 0.235
- relative viability (LXF-289; first compound 158.11 µM): 0.203
- relative viability (LXF-289; first compound 500 µM): 0.0464
